Reference: PMC8482806, “A Novel Blood-Brain Barrier-Permeable Chemotherapeutic Agent for the Treatment of Glioblastoma” (Cureus, 2021)

Experiments:
[1] = Tolerability in non-tumor-bearing nude mice; format: in vivo, mouse; conditions: 5 or 10 mg/kg IV once a week for four weeks
Method: The tumor-suppressive activity of QBS10072S was evaluated in two orthotopic murine models of GBM using luciferase-expressing U251 and LN229 cell lines. Tumor volume was monitored by BLI measurement. The tolerability of QBS10072S was first tested by dosing 5 or 10 mg/kg IV once a week for four weeks into non-tumor-bearing nude mice (Figure 6). The body weights and white blood cell counts were not affected by this treatment, so QBS10072S was tested at various doses up to 10 mg/kg in the GBM models.
Figure 6 Tolerability of QBS10072S in nude mice Non-tumor-bearing nude mice were dosed IV with vehicle or QBS10072S (5 or 10 mg/kg) once a week for four weeks (arrows). Body weights were measured every three days and complete blood counts were determined once a week for seven weeks. A: Percent change in body weight over the course of the study, normalized to pre-dose weight. B: White blood cell (WBC) counts for each study arm. Horizontal bars represent the normal range of WBCs in these mice.

[2] = target: T1, hLAT1 (Homo sapiens, UniProt Q01650); assay: Substrate transport inhibition, [3H]-gabapentin uptake in LLC-PK1 cells expressing hLAT1; format: cell-based
T1 construct: host or cells: LLC-PK1 (tetracycline-inducible, Invitrogen Gateway pT-REx System)
Method: Substrate transport inhibition studies were conducted with LLC-PK1 cells inducibly expressing either hLAT1 or hLAT2. Cells were plated in growth media with 1 μg/mL doxycycline at 30,000 cells/well in 96-well plates. Sixteen hours after plating, cells were treated with butyrate at a final concentration of 5 mM. The following day, cells were washed with PBS and incubated in the presence or absence of various concentrations of QBS10072S with 30,000 cpm/well of either [3H]-gabapentin (LAT1) or [3H]-leucine (LAT2) in PBS for 15 minutes at room temperature. The non-specific cell-bound activity was determined by the addition of 5 mM unlabeled gabapentin (LAT1) or leucine (LAT2). Unincorporated radioactivity was removed, and cells were washed three times with ice-cold PBS. Cells were lysed by adding scintillation fluid to each well, and cell-associated radioactivity was determined via scintillation counting using a multichannel 96-well plate reader (MicroBeta Trilux, Perkin Elmer, Waltham, MA). Data were expressed as the percent of specific radioactivity uptake in wells with no compound added. LC50s were determined by non-linear curve-fitting using GraphPad Prism (San Diego, CA).

[3] = system: AM38 cells; assay: Cell viability assay (CellTiter-Glo), AM38; format: cell-based; conditions: Homo sapiens, AM-38; Cell Line: AM38; read-out: LC50 (μM ± SD)
Method: In vitro activity of QBS10072S was assessed using a modified clonogenic cell viability assay in 96-well clear-bottom plates. For the LLC-PK1 inducible LAT1-expressing cell line, 1000 cells/well were plated and cells were treated with either butyrate alone (non-induced) or with both butyrate and doxycycline (induced) as described above. For GBM cell lines, 2000 cells/well were plated. On day 2 (GBM) or day 3 (LLC-PK1) after original plating, cells were washed twice with PBS and incubated with 50 μL of various concentrations of QBS10072S in PBS in at least quadruplicate. After 30 minutes at 37°C, 200 μL of growth medium was added to each well. Clonal populations were allowed to grow until the control wells (mock treatment) were near confluence (7 to 10 days). At this point, 170 μL media were removed and 60 μL CellTiter-Glo® (Promega, Madison, WI) were added to each well. Plates were placed on an orbital shaker for three minutes to lyse the cells and then incubated for an additional 10 minutes at RT to stabilize the luminescent signal. Luminescence was recorded using an EnSpire® Multimode Plate Reader (Perkin Elmer). Background (luminescence from wells incubated with 100 μM melphalan or lomustine) was subtracted and data were normalized to the control. EC50s were determined by non-linear regression using GraphPad Prism.

[4] = Microscopic evaluation of brain tissue after dosing rodents; format: in vivo; conditions: rodents dosed with high levels
[5] = system: phosphorylation of H2AX in LN229 cells; assay: Phosphorylation of γ-H2AX assay (immunoblot), LN229; format: cell-based, human; conditions: LN229, 16 hours
[6] = system: phosphorylation of H2AX in U251 cells; assay: Phosphorylation of γ-H2AX assay (immunoblot), U251; format: cell-based, human; conditions: U251, 16 hours
Method: U251 or normal human astrocyte cells were plated in six-well plates and incubated with various concentrations of QBS10072S for 16 hours. Proteins were extracted from cells using cell lysis buffer (Cell Signaling Technologies, Danvers, MA) supplemented with proteinase and a phosSTOP phosphatase inhibitor cocktail (Sigma-Aldrich, St. Louis, MO). Proteins were separated by SDS-PAGE and transferred onto polyvinylidene difluoride membranes, which were then probed with primary antibodies followed by horseradish peroxidase-conjugated secondary antibody, and visualized by ECL (Thermo-Fischer, S. San Francisco, CA). Antibodies specific for γH2AX (#2577), LAT1 (#5347), and beta-actin (#4970) were obtained from Cell Signaling Technologies.

[7] = system: U87 cells; assay: WST1 cell viability assay, U87; format: cell-based; conditions: Homo sapiens, U-87 MG, read-out: LC50 (μM ± SD)
Method: In vitro activities of QBS10072S and temozolomide (TMZ) in U87 and U87-MGMT cells were assessed using the WST1 cell viability assay in 96-well plates in which 500/well of cells were plated in sextuplets for each condition. To avoid cell loss, the following washing and medium removing procedures were all done using a P200 pipet without vacuum aspiration. For QBS10072S treatment, cells were washed with PBS the next day and incubated with 50 μL of various concentrations of QBS10072S in PBS for 1 hour at 37°C. After incubation, 150 μL of growth medium was added to each well. The medium was subsequently changed every two days until day 7. For TMZ treatment, cells were treated with 100 μL of various concentrations of TMZ in a growth medium for 2 days. After incubation, cells were put back in a normal growth medium and continued culturing for five days. In the end, 10 μL of WST1 reagent was added to each well and incubated at 37°C for 4h before subjecting to plate reading at 450 nm and 690nm using an EnSpire multimode plate reader (PerkinElmer). Background (OD690nm) was subtracted and data were normalized to the control. LC50s were determined by non-linear regression using GraphPad Prism (GraphPad Software Inc., San Diego, California)

T1 sequence (Q01650 whole entry): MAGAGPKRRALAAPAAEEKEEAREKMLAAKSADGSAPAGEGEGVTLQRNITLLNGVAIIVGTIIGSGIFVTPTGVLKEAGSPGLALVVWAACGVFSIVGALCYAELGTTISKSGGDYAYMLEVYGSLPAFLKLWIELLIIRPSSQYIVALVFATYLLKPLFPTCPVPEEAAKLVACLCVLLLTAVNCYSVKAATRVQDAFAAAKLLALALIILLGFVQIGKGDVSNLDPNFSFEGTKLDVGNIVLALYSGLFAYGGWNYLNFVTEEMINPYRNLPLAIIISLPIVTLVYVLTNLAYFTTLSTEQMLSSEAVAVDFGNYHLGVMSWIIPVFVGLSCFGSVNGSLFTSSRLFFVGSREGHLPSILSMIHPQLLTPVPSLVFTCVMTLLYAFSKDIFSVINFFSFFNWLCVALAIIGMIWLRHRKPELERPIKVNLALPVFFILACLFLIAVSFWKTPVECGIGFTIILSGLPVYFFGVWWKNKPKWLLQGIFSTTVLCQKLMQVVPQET
T1 sequence (P08195 102-630 partner): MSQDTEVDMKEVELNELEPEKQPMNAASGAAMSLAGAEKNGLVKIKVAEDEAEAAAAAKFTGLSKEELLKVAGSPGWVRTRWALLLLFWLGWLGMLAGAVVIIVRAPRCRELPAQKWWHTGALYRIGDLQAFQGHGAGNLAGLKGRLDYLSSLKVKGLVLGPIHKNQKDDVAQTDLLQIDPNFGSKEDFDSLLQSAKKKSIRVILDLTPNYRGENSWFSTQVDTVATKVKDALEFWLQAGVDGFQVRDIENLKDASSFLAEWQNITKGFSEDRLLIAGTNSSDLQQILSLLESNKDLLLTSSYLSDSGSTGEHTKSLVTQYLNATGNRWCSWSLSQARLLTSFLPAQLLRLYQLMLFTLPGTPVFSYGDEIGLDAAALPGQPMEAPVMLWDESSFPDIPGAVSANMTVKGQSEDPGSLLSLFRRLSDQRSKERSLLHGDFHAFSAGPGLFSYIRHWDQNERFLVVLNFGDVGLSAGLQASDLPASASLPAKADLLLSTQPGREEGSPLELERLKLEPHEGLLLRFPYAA

## Cc1ccc(N(CCCl)CCCl)cc1C[C@H](N)CC(=O)O [QBS10072S, (+)-(3S)-amino-4-[5-[bis(2-chloroethyl)amino]-2-methyl-phenyl]butanoic acid]
[1]
  body weights: not affected
  white blood cell counts: not affected
[2]; [3H]-gabapentin, LLC-PK1 LAT1-expressing cells, 15 minutes at room temperature, read-out: IC50, inhibition of substrate transport (LAT1)
  IC50: 21 µM
[2]; ratio of IC50s LAT2/LAT1
  selectivity LAT1 vs. LAT2 in transport assays: 50 fold
[3]
  CC50: 14 ± 4 µM
[4]
  alterations of the BBB, microscopic evaluation of brain tissue: no alterations of the BBB
[5]
  phosphorylation of H2AX: dose-dependent phosphorylation of H2AX
[6]
  phosphorylation of H2AX: dose-dependent phosphorylation of H2AX
[7]
  CC50: 14.7 ± 5.3 µM
